The source of these data is US8497303B2, “Method to enhance aqueous solubility of poorly soluble actives” (Dow Global Technologies LLC, priority 2008, dated 2013).

The conditions of data set [1]: for Percent Loading Using MPEG 350: saturated solution, HPLC. As to the method: The solution is then stirred with a vortex mixer for approximately 1 to 2 minutes, then shaken with an automated shaker for about 45 minutes. […] The sample is then left overnight in a water bath at about 29° C.
The solution is stirred with a vortex mixer for approximately 1 to 2 minutes, then shaken with an automated shaker for about 45 minutes. […] The sample is left overnight in a water bath at about 30° C.
The solutions are then filtered through a syringe filter and the concentrations are characterized by HPLC. The percent water in the MPEG solutions varies from 0 to 20 percent.
The solution is then filtered through a syringe filter and the concentration is characterized by HPLC. The percent water in the MPEG solutions varies from 0 to 20 percent.

For data set [2] the following is noted: for Percent Loading Using PEG 400: saturated solution, HPLC. As to the method:
For comparison, solutions of PEG 400 and water are prepared in an analogous manner to those including the MPEG 350.
For comparison, solutions of PEG 400 and water are prepared in an analogous manner.

Like-named read-outs stand apart in the source and are kept apart here.

With `CC(=O)Nc1ccc(O)cc1` [Acetaminophen], the “Maximum solubility for MPEG 350:water blends greater than that for PEG 400:water blends” value in data set [1] was 10.6%. Also, the “Percent Loading Using MPEG 350” value in data set [1] (0 percent water in MPEG 350) came out at 16.20%; in data set [1] (5 percent water in MPEG 350), 21.93%; in data set [1] (10 percent water in MPEG 350), 23.62%; in data set [1] (15 percent water in MPEG 350), 24.47%; in data set [1] (20 percent water in MPEG 350), 24.01%. The “Loading with MPEG:water blends relative to PEG:water blends” value in data set [1] (when water is added) is on record as “higher loading”. Besides, in data set [2], the “Amount solubilized by neat PEG 400 solution relative to neat MPEG 350 solution” value is “slightly more”. Besides, the “Percent Loading Using PEG 400” value in data set [2] (0 percent water in PEG 400) was found to be 16.82%; in data set [2] (5 percent water in PEG 400), 20.62%; in data set [2] (10 percent water in PEG 400), 21.78%; in data set [2] (15 percent water in PEG 400) it was 22.12%; in data set [2] (20 percent water in PEG 400), 21.59%.
Take `CC(C)Cc1ccc(C(C)C(=O)O)cc1` (centres unmarked) [Ibuprofen, ibuprofen]: in data set [2], the “Solubility (maximum loading) in PEG 400” value was determined as 21.6±0.8 weight percent. For the same compound, the “Percent Loading Using PEG 400” value turned out to be 21.60% in data set [2] (0 percent water in PEG 400); 24.31% in data set [2] (5 percent water in PEG 400); 21.48% in data set [2] (10 percent water in PEG 400); 17.24% in data set [2] (15 percent water in PEG 400); 11.56% in data set [2] (20 percent water in PEG 400).
In the case of `COc1ccc2cc([C@H](C)C(=O)O)ccc2c1` [Naproxen, naproxen], in data set [1] (95:5 MPEG 350:water vs MPEG 350 without water), the “Increase in loading compared to the MPEG 350 solution containing no water” value was 24.4%. Further, the “More loading with 95:5 MPEG 350:water blend compared to the best PEG 400:water blend” value in data set [1] (95:5 MPEG 350:water vs PEG 400:water blend with highest loading) was found to be 29.2 weight percent. Besides, the “Appearance of solution in MPEG 350” value in data set [1] (approximately 15.4 weight percent solution, left overnight in water bath at about 30° C.) was “some suspended material”. For the same compound, the “Amount of drug loading in MPEG 350 solution higher than in PEG 400 solution” value in data set [1] (neat MPEG 350 vs neat PEG 400) is listed as “approximately 13.6%”.
